According to patent US8633166B2, “Methicillin-resistant Staphylococcus aureus active metabolites” (priority 2009, dated 2014):

Legend:
[1] = tested on: Methicillin-resistant Staphylococcus aureus; experiment: In vivo MRSA assay, thigh infection in a murine model; design: species or system Mice (CD-1); conditions: for number of MRSA recovered from muscle tissue: 48 hours, neutropenic mice
Protocol: The in vivo antimicrobial activity for the isolated glycosides is represented in FIGS. 2A and 2B. Mice (CD-1) were purchased from Harlan Inc. and acclimatized up to 5 days before use. Food and water were available ad libitum throughout the study. They were rendered neutropenic by two injections of cyclophosphamide (100 mg/kg) given intraperitoneally, one and four days before infection. A volume of 50 uL suspension of Methicillin-resistant Staphylococcus aureus (1.5×10^6 live organisms) was injected intramuscularly (1M) into each of the two rear thighs. Each thigh was considered as an individual data point (total of 4 data points for each treatment). These mice were randomly distributed into the control or treatment groups (n=2/group).
Treatment with the test compound (1) was initiated via the intraperitoneal route 2 hrs after thigh inoculation. Control animals were concurrently administered saline (mock treatment) or vancomycin in the same volume as those receiving compound (1). All animals were sacrificed after 48 hours by CO2 inhalation. Immediately following sacrifice, thigh tissue was collected from the animals, weighed, and homogenized in 5.0 mL of saline. Thigh muscle homogenate was then processed for microbiological assay to determine the number of MRSA cfu per gram of muscle tissue.

enterococci = experiment: In vitro MIC, for enterococci; type: cell-based; conditions: E. faecalis and E. faecium, vancomycin-susceptible and vancomycin-resistant strains
Protocol: All test articles were dissolved in DMSO. Stock solutions were prepared at 40-fold the highest concentration in the test plate. The final concentration of DMSO in the test system was 2.5%.
The medium employed for the MIC assay was Mueller Hinton II Broth (MHB II-Becton Dickinson, #212322, Lot #9044411) for most of the organisms. MHB II was supplemented with 2% lysed horse blood (Cleveland Scientific Lot #22299-1) to accommodate the growth of Streptococcus pneumoniae, Streptococcus pyogenes and Streptococcus agalactiae. The media were prepared at 102.5% the normal weight to offset the dilution created by the addition of 5 μL drug solution to each well of the microdilution panels. […]
Plates were stacked 3 high, covered with a lid on the top plate, placed in plastic bags, and incubated at 35° C. for approximately 18 hours for most of the isolates. The Streptococcus plates were read after 20 hours of incubation. […] The MIC was read and recorded as the lowest concentration of drug that inhibited visible growth of the organism.

C[C@@H]1O[C@@H](Oc2c(-c3ccc(O)cc3)oc3cc(O)cc(O)c3c2=O)[C@H](OC(=O)/C=C/c2ccc(O)cc2)[C@H](OC(=O)/C=C/c2ccc(O)cc2)[C@H]1O [Compound 1, kaempferol 3-O-α-L-(2″,3″-di-E-p-coumaroyl)rhamnoside]
reduction compared to vehicle control ([1]; 3 mg/kg): 67%
number of MRSA recovered from muscle tissue ([1]; 3 mg/kg intraperitoneal): 2.6×10^7 cfu/g
reduction compared to vehicle control ([1]; 15 mg/kg): 78%
number of MRSA recovered from muscle tissue ([1]; 15 mg/kg intraperitoneal): 1.8×10^7 cfu/g
activity against enterococci (enterococci): inhibited multiple strains
